A value given as a limit tells only on which side of the number the result lay.

This note sets out measurements from patent publication US20230009608A1, “GRK2 INHIBITORS AND USES THEREOF” (Cygnal Therapeutics, Inc., priority 2020, published 2023).

The first experiment concerns PAXF1657 control empty vector cell line. Description: 7-day proliferation assay, PAXF1657 control empty vector cell line (Example 9). As to conditions: 168 h; Cell Line: PAXF1657 empty vector (EV) cell line; 7-day; read-out: C: 7-day proliferation assay: IC50 GeoMean. Format: cell-based. The method, then: In order to identify compounds specific for GRK2, we generated two isogenic cell line pairs of the pancreatic cancer cell line PAXF1657, a pair of cells stably overexpressing GRK2 cDNA or the control empty vector and a cell line pair of PAXF1657 GRK2 knockout clonal cells versus non-targeting control clonal cells.
Proliferation Assay: Cellular anti-proliferative activity of compounds was assessed by using the pancreatic cancer cell line, PAXF1657, stably overexpressing GRK2 cDNA or the control empty vector, as well as the parental urinary bladder cancer cell line, 5637. In addition, we also took advantage of GRK2 knockout cell lines that were generated via CRISPR. Cell lines were seeded into tissue culture treated, white-walled, 96-well plates at a density of 500 cells/well in RPMI1640 media supplemented with 10% H.I. FBS and penicillin/streptomycin. Plates were incubated overnight at 37° C., 5% CO2 to allow cells to adhere to the wells. GRK2 inhibitors were added to the cells using a 10-point dilution series with a final concentration ranging from 30 μM-0.0002 μM in 0.3% DMSO. At the time of compound addition, a set of plates, that were not treated with compounds, were collected and cell viability was measured using CellTiter-Glo (Promega). CellTiter-Glo reagent was added to the designed plates and luminescence was measuring using a Biotek Synergy plate reader. The compound treated cells were incubated for 3 days at 37° C., 5% CO2. The media was then aspirated from each well and replaced with fresh media containing GRK2 inhibitors. The compound treated cells were then incubated for an additional 4 days at 37° C., 5% CO2. Cell viability was assessed and at end of the 7-day compound treatment by CellTiterGlo.
Regarding `Cn1c(CNc2cccc(C(=O)NC3(c4nccs4)CCCC3)c2)nnc1-c1ccncn1`, the IC50 is above 10 µM.
On the same count and under the same terms, the value for `Cn1c(CNc2cccc(C(=O)NCc3ncoc3C(F)(F)F)c2)nnc1-c1ccncn1` was above 10 µM.
The same measure, in the same setting: the value for `Cn1c(CNc2cccc(C(=O)NCc3cc(C(F)(F)F)ccn3)c2)nnc1-c1ccncn1` was above 10 µM; that for `C[C@H](NC(=O)c1cccc(NCc2nnc(-c3ccncn3)n2C)c1)c1cncc(F)c1` was 2.3 µM; that for `Cn1c(CNc2cccc(C(=O)NCc3cn[nH]c3)c2)nnc1-c1ccncn1` was above 10 µM.
On the same count and under the same terms, the value for `COc1cccc(CNC(=O)c2cccc(NCc3nnc(-c4ccncn4)n3C)c2)c1OC` was above 10 µM.
For `Cn1c(CNc2cccc(C(=O)NCc3ccnc(C(F)(F)F)c3)c2)nnc1-c1ccncn1`, the IC50 was found to be 0.995 µM.
Take `COc1ccnc(CNC(=O)c2cccc(NCc3nnc(-c4ccncn4)n3C)c2)c1`: the IC50 came out at 3.15 µM.
In the case of `Cc1ccnc(CNC(=O)c2cccc(NCc3nnc(-c4ccncn4)n3C)c2)n1`, the IC50 is above 10 µM.
Turning to `Cn1c(CNc2cccc(C(=O)NCc3ncccn3)c2)nnc1-c1ccncn1`, the IC50 was above 10 µM.
Still for that read-out and setting: then `Cn1cc2c(n1)CCCC2NC(=O)c1cccc(NCc2nnc(-c3ccncc3)[nH]2)c1` (stereo not drawn), with above 10 µM; and `Cc1cc(CNC(=O)c2cccc(NCc3nnc(-c4ccncc4)[nH]3)c2)ccn1`, with above 10 µM.
On the same count and under the same terms, the value for `Cc1nc(C)c(CNC(=O)c2cccc(NCc3nnc(-c4ccncc4)[nH]3)c2)o1` was above 10 µM.
With `CCn1nc(C)c(CNC(=O)c2cccc(NCc3nnc(-c4ccncc4)[nH]3)c2)c1C`, the IC50 is above 10 µM.
Same read-out and setting: then `O=C(NC[C@H]1COCCO1)c1cccc(NCc2nnc(-c3ccncc3)[nH]2)c1`, with 1.12 µM; and `O=C(NCc1ccncc1OCC(F)F)c1cccc(NCc2nnc(-c3ccncc3)[nH]2)c1`, with above 10 µM; and `O=C(NC1(c2ncccn2)CC1)c1cccc(NCc2nnc(-c3ccncc3)[nH]2)c1`, with above 10 µM.
In the case of `CCn1nnc(C)c1CNC(=O)c1cccc(NCc2nnc(-c3ccncc3)[nH]2)c1`, the IC50 was 0.651 µM.
On the same count and under the same terms, then `C[C@H](NC(=O)c1cccc(NCc2nnc(-c3ccncc3)[nH]2)c1)c1ccncc1`, with above 10 µM; and `CO[C@H]1C[C@H](CNC(=O)c2cccc(NCc3nnc(-c4ccncc4)[nH]3)c2)C1`, with above 10 µM.
On to `Cn1c(CNC(=O)c2cccc(NCc3nnc(-c4ccncc4)[nH]3)c2)nnc1C1CCC1`, for which the IC50 was above 10 µM.
Take `O=C(NCC1(F)CCC1)c1cccc(NCc2nnc(-c3ccncc3)[nH]2)c1`: the IC50 was 3.22 µM.
Regarding `CC1(CNC(=O)c2cccc(NCc3nnc(-c4ccncc4)[nH]3)c2)CCCOC1` (stereo not drawn), the IC50 is above 10 µM.
On to `COc1cnccc1C(C)NC(=O)c1cccc(NCc2nnc(-c3ccncc3)[nH]2)c1` (stereo not drawn), for which the IC50 was above 10 µM.
On the same count and under the same terms, then `CCn1nccc1C(C)NC(=O)c1cccc(NCc2nnc(-c3ccncc3)[nH]2)c1` (stereo not drawn), with above 10 µM; and `CN1CCC(CNC(=O)c2cccc(NCc3nnc(-c4ccncc4)[nH]3)c2)C1=O` (stereo not drawn), with above 10 µM.
Same read-out and setting: the value for `O=C(NCc1nnc2n1CCCC2C(F)(F)F)c1cccc(NCc2nnc(-c3ccncc3)[nH]2)c1` (stereo not drawn) was above 10 µM; that for `O=C(NCC1CC1(F)F)c1cccc(NCc2nnc(-c3ccncc3)[nH]2)c1` (stereo not drawn) was above 10 µM; that for `COC[C@H](NC(=O)c1cccc(NCc2nnc(-c3ccncc3)[nH]2)c1)c1cccnc1` was above 10 µM.
`C[C@H](NC(=O)c1cccc(NCc2nnc(-c3ccncc3)[nH]2)c1)c1ccnn1C`: the IC50 is 9.81 µM.
Consider `Cc1nn(C)c(C)c1CNC(=O)c1cccc(NCc2nnc(-c3ccncc3)[nH]2)c1`, for which the IC50 is above 10 µM.
On the same count and under the same terms, the value for `O=C(NCc1cccnc1-n1ccnc1)c1cccc(NCc2nnc(-c3ccncc3)[nH]2)c1` was above 10 µM.
Same read-out and setting: the value for `Cc1nnc(CNC(=O)c2cccc(NCc3nnc(-c4ccncc4)[nH]3)c2)n1C` was above 10 µM.
The same measure, in the same setting: then `C[C@H](NC(=O)c1cccc(NCc2nnc(-c3ccncc3)[nH]2)c1)c1cnnn1C`, with above 10 µM; and `COCCn1nc(C)c(CNC(=O)c2cccc(NCc3nnc(-c4ccncc4)[nH]3)c2)c1C`, with above 10 µM; and `Cc1n[nH]cc1CNC(=O)c1cccc(NCc2nnc(-c3ccncc3)[nH]2)c1`, with above 10 µM.
Turning to `Cn1cnnc1CNC(=O)c1cccc(NCc2nnc(-c3ccncc3)[nH]2)c1`, the IC50 was above 10 µM.
On to `Cn1ncnc1CNC(=O)c1cccc(NCc2nnc(-c3ccncc3)[nH]2)c1`, for which the IC50 was above 10 µM.
Turning to `CCn1cnnc1CNC(=O)c1cccc(NCc2nnc(-c3ccncc3)[nH]2)c1`, the IC50 was above 10 µM.
`CCn1nccc1CNC(=O)c1cccc(NCc2nnc(-c3ccncc3)[nH]2)c1`: the IC50 is 0.739 µM.
As to `CCn1ncnc1CNC(=O)c1cccc(NCc2nnc(-c3ccncc3)[nH]2)c1`, the IC50 is above 10 µM.
In the case of `O=C(NCc1ccncn1)c1cccc(NCc2nnc(-c3ccncc3)[nH]2)c1`, the IC50 was above 10 µM.
Same read-out and setting: then `O=C(NCc1cccnn1)c1cccc(NCc2nnc(-c3ccncc3)[nH]2)c1`, with above 10 µM; and `COCCn1cc(C(C)NC(=O)c2cccc(NCc3nnc(-c4ccncc4)[nH]3)c2)cn1` (stereo not drawn), with above 10 µM.
On the same count and under the same terms, then `CC(NC(=O)c1cccc(NCc2nnc(-c3ccncc3)[nH]2)c1)c1ncnn1C` (stereo not drawn), with above 10 µM; and `CN(C)CCC(NC(=O)c1cccc(NCc2nnc(-c3ccncc3)[nH]2)c1)c1ccccc1` (stereo not drawn), with above 10 µM.
Regarding `CC(NC(=O)c1cccc(NCc2nnc(-c3ccncc3)[nH]2)c1)c1cn[nH]c1` (stereo not drawn), the IC50 stood at 0.323 µM.
On the same count and under the same terms, the value for `O=C(NCc1nnc2n1CCC(C(F)(F)F)C2)c1cccc(NCc2nnc(-c3ccncc3)[nH]2)c1` (stereo not drawn) was 89.3 µM; that for `CC(NC(=O)c1cccc(NCc2nnc(-c3ccncc3)[nH]2)c1)c1ncn(C)n1` (stereo not drawn) was above 10 µM; that for `CN(C)CCC(NC(=O)c1cccc(NCc2nnc(-c3ccncc3)[nH]2)c1)c1cccnc1` (stereo not drawn) was above 10 µM.
The same measure, in the same setting: then `CC(NC(=O)c1cccc(NCc2nnc(-c3ccncc3)[nH]2)c1)c1nncn1C` (stereo not drawn), with above 10 µM; and `CCOc1ccccc1CNC(=O)c1cccc(NCc2nnc(-c3ccncc3)[nH]2)c1`, with above 30 µM; and `Cc1csc(CNC(=O)c2cccc(NCc3nnc(-c4ccncn4)n3C)c2)n1` [drawing 407], with 0.862 µM.

For a further experiment, the target named is T1, GRK2 (Homo sapiens, UniProt P25098).
T1 construct: purchased SignalChem A14-10G
T1 sequence (P25098 1-689): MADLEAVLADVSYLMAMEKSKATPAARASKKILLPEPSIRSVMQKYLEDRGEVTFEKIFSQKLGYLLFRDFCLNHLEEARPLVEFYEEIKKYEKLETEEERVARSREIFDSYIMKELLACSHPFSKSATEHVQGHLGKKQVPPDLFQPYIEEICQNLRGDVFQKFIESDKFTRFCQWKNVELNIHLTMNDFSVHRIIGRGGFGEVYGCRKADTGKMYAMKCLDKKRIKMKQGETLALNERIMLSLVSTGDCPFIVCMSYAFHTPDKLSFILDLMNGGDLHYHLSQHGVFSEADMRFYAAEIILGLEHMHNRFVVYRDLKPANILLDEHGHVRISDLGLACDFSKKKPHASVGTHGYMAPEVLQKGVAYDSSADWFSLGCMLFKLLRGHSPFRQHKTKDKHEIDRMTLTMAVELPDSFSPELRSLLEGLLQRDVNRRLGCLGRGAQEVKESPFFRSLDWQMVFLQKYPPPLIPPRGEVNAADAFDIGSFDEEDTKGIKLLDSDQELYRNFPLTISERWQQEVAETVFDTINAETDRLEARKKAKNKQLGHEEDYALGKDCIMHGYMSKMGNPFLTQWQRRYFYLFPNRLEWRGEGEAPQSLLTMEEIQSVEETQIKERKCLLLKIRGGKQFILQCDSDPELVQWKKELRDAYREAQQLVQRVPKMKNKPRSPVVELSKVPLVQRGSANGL
The experiment can be described thus: ADPGlo GRK2 Inhibition Assay (Example 8). The format is biochemical. As to conditions: ADPGlo GRK2 enzyme assay; read-out: A: Enzymatic GRK2: IC50 (nM) (Example 8). The method, then:
HTS was performed using 1 μM compound.
Compounds were dissolved in 100% DMSO, serially diluted tree-fold from 100 μM concentration to 46 nM and transferred (50 nL) into assay ready plate.
Materials: GRK2 was purchased from SignalChem (Cat #A14-10G, Lot #X^645-3). Substrate GRKtide was from SignalChem (Cat #G46-58, Lot #R339-6). ADP-Glo Kinase Assay from Promega (Cat #V9102). Assay buffer consisted of 25 mMv HEPES (pH7.5), 10 mMv MgCl2, 0.01% Tween-20, 1 mM DDT. 384-well white plates were from Greiner […] (Item #784075).
HTS protocol: Take 384 well plate with 50 nL of compound in columns 3-22/DMSO solution 1-2,23-24. Add 2.5 μL assay buffer to columns 23 and 24 using Thermo Scientific Multidrop Combi Dispenser. Add 2.5 μL of 2× enzyme solution (15 nM in 1× assay buffer) using Thermo Scientific Multidrop Combi Reagent Dispenser to all columns except of 23 and 24. Incubate for 15 minutes. Fill plate with 2.5 μL of 2× substrate mix (20 μM ATP and 0.6 mg/nt GRKtide in Ix assay buffer) using Thermo Scientific Multidrop Combi Reagent Dispenser. Spin 15 seconds at 1000 rpm and incubate for 180 min at room temperature. Add 5 μL ADP-Glo reagent to all the wells. Spin 15 seconds at 1000 rpm and incubate for 40 min at room temperature. Add 10 μL Detection solution to all the wells. Incubate for 30 min at room temperature. Read plate in Luminescent modeon BMG PheraStar FSX (gain=3600).
Data Analysis: Data were analyzed in GraphPad Prism 8.0.2. Each HTS plate contains compounds in columns 3-22, controls (enzyme, no compound) in columns 1 and 2, and blanks (no enzyme) in columns 23 and 24. HTS percent inhibition was calculated for each compound from the signal in luminescence units and the mean of the plate controls and the mean of the plate blanks using the following equation: % Inhibition=100*(1−((signal-blank mean)/(control mean-blank mean))). At the final stage of data processing, we obtain dose-response curves, tables and SDF-files with the results of screening for each substance.
In general terms: In ADP-Glo the light output rises with the ADP produced.
Consider `COc1cccc([C@@H](C)NC(=O)c2cccc(NCc3nnc(-c4ccncc4)[nH]3)c2)c1`, for which the IC50 came to 81.6 nM.
